What was measured:
[1] = Curcumin plasma concentration after intravenous administration in the pig (for comparison); format: in vivo; details: 0.60 grams for 23 kg
[2] = piperine used with curcumin; cited from earlier work

Time for which the plasma concentration remains at a constant level [1] | Time of plasma concentration peak [1] | concentration at 0 hours ([1]; plasma, 0.6 grams for 23 kg of live weight, 0 hours) | concentration at 3 hours ([1]; plasma, 0.6 grams for 23 kg of live weight, 3 hours) | concentration at 6 hours ([1]; plasma, 0.6 grams for 23 kg of live weight, 6 hours) | concentration at 9 hours ([1]; plasma, 0.6 grams for 23 kg of live weight, 9 hours) | concentration at 24 hours ([1]; plasma, 0.6 grams for 23 kg of live weight, 24 hours) | concentration at 48 hours ([1]; plasma, 0.6 grams for 23 kg of live weight, 48 hours) | concentration at 72 hours ([1]; plasma, 0.6 grams for 23 kg of live weight, 72 hours) | Structure (SMILES) | Effect in the intestine (in words) [2]
10 h | 24 h | 0 ng/mL | 537 ng/mL | 557 ng/mL | 713 ng/mL | 724 ng/mL | 537 ng/mL | 385 ng/mL | COc1cc(/C=C/C(=O)CC(=O)/C=C/c2ccc(O)c(OC)c2)ccc1O [Curcumin, curcumin] | –
– | – | – | – | – | – | – | – | – | O=C(/C=C/C=C/c1ccc2c(c1)OCO2)N1CCCCC1 [piperine] | irritating effect in the intestine

Reference: patent US12042520B2 (SOLUVEG SA, priority 2015, dated 2024)
